These results are taken from patent publication US9781933B2, “Tetrazolinone compound and use thereof” (Sumitomo Chemical Company, Limited, priority 2013, dated 2017).

A value given as a limit tells only on which side of the number the result lay.

The test concerns wheat rust fungus (Puccinia recondita). Kind of test: Comparative Test Example: wheat rust control at 50 ppm. To be noted: 50 ppm foliar spray; wheat (SHIROGANE); inoculated 5 days after spraying. Type of test: in vivo. As to the method: After spraying, the plant was air-dried so as to dry the dilution on the surface of the leaves. […] After the inoculation, the plant was placed at 23° C. for one day under dark and high humidity condition, and cultivated, under illumination at 20° C. for 8 days, and then the area of lesion was investigated.

`Cc1cccc(-n2nnn(C)c2=O)c1COc1ccn(-c2ccc(F)cn2)n1` [compound 40]: the “area of lesion relative to that on an untreated plant” value is ≤ 30%.

`Cn1nnn(-c2ccccc2COc2ccn(-c3ccc(F)cc3)n2)c1=O` [control compound, 1-(2-{[1-(4-fluorophenyl)-1H-pyrazol-3-yl]oxymethyl}-phenyl)-4-methyl-1,4-dihydrotetrazol-5-one]: the “area of lesion relative to that on an untreated plant” value is on record as ≥ 70%.
